# Experimental data reported in patent US7160992B2, “Amino-modified polysaccharides and methods of generating and using same” (Yeda Research and Development Co., Ltd., priority 2003, dated 2007).
# “And” between values parts separate entries of the source, which are not always exact repeats. Identical values can stand only once.
# Columns and labels:
# [1] = molecular target: RRE IIB RNA; test: Fluorescence anisotropy: RhdRev binding and AAC competition for RRE IIB RNA; parameters: species or system HIV-1; conditions: for Kd: competition of AACs with RhdRev (10 nM) for RRE IIB RNA (20 nM) binding, 85 mM NaCl; for IC50: competition of AACs with RhdRev for RRE IIB RNA binding
# [2] = system: MT-2 cells; test: Cellular uptake competition of AACs with NeoR6-FITC, flow cytometry; format: cell-based; conditions: for inhibition of NeoR6-FITC uptake, less affinity than NeoR6: 100 fold excess of non-labeled AAC over 0.5 μM NeoR6-FITC; for competition with NeoR6-FITC uptake (in words): 100 fold excess of non-labeled AAC
# Procedure: Following 15 minutes of incubation at room temperature, the cells were washed twice with ice-cold PBS and fixed in PBS containing 1% paraformaldehyde. Fluorescence was analyzed using flow cytometry.
# After 5 or 15 min of incubation at room temperature, the cells were washed twice with ice-cold PBS and fixed in PBS containing 1% paraformaldehyde. The fluorescence was then analyzed by flow cytometry (FACScan, Becton Dickinson Imunocytometry Systems, San Jose, Calif., USA). For each sample 10,000 events were acquired. Data were analyzed and processed.
# [3] = system: U38, PM1, H9 cells and PBMC; test: Cellular uptake of AAC-FITC fluorescent probes, fluorescence microscopy; format: cell-based; conditions: 0.5 μM, 10 minutes of incubation
# Procedure: Images were obtained using a Zeiss Axiophot microscope.
# Cellular uptake using AAC fluorescent probes—U38, PM1, H9 cells and PBMC(10^5) were incubated for 20 minutes at room temperature in 100 μl RPMI 1640 medium (Gibco-BRL, Life-Technologies, UK) including AAC-FITC derivatives as indicated at a final concentration of 0.5 μM. Cells were washed twice, resuspended in 100 μl medium and analyzed with a Zeiss Axiophot fluorescent microscope.
# [4] = system: PM1 cells; test: Inhibition of FITC-labeled AAC uptake by SDF-1α, flow cytometry; format: cell-based; conditions: for MFI of FITC-AAC uptake: background MFI of 10; for inhibition of cell uptake by SDF-1α: PM1 cells
# Procedure: Following 20 minutes at room temperature the cells were washed twice with PBS and analyzed by flow cytometry.
# Following 30 minutes of incubation, cells were washed with ice-cold wash buffer and analyzed by flow cytometry as described above.
# [5] = system: cMAGI cells; test: Competition between FITC-labelled AACs and RANTES; format: cell-based; conditions: 2.5 mM RANTES
# Procedure: Competition between FITC labelled AACs (1 mM) and RANTES (2.5 mM, Pepro Tech Inc., New Jersey, USA) was effected in 2×10^5 cMAGI cells. Following 30 min of incubation, cells were washed with ice-cold wash buffer and analysed by flow cytometry as described above.
# [6] = molecular target: TAR RNA; test: Fluorescence anisotropy: RhdRev binding and AAC competition for TAR RNA; parameters: species or system HIV-1; conditions: for Kd: competition of AACs with RhdRev (10 nM) for TAR RNA (20 nM) binding, 85 mM NaCl; for IC50: competition of AACs with RhdRev for TAR RNA binding; for competition with RhdRev for TAR RNA binding (in words): up to 20 μM of AAC
# [7] = molecular target: T1, CXCR4 (Homo sapiens, UniProt P61073); test: Inhibition of anti-CXCR4 mAb 12G5 binding to cells, flow cytometry; format: cell-based; conditions: for reduction of 12G5 mAb binding to the cells: 10 μM AAC, PM1 cells, 30 min at 4° C.; for inhibition of mAb 12G5 or SDF-1α binding to CXCR4, % of the NeoR6 activity: in comparison to NeoR6; for inhibition of 12G5 mAb binding to CXCR4 (in words): 20 μM aminoglycoside antibiotic
# T1 construct: endogenous in cells; host or cells: PM1 cells and PBMC
# Procedure: FIGS. 11a–d are graphs depicting the binding of AACs to CXCR4 in the presence of anti CXCR4 antibody (12G5). PM1 cells were incubated with PE-conjugated isotype control mAb, PE-anti CXCR4 conjugated mAb (12G5) alone, or in the presence of the indicated AACs for 30 min at 4° C. The cells were then washed twice with PBS and analyzed by flow cytometry. The MFI values are shown in parenthesis.
# Interaction of AACs with CXCR4 was determined by flow cytometry (FACScan, Becton Dickinson) as described recently (Litovchick et al., 2001, supra). Briefly, 0.5×10^6 cells were washed in ice-cold PBS containing 0.1% sodium azide (wash buffer) and incubated at 4° C. with anti-CXCR4 mAb, 12G5 (PharMingen, San Diego, Calif.) conjugated to phycoerithrine (PE), in the absence or presence of different concentrations of the AACs. After 30 min of incubation, the cells were washed with ice-cold wash buffer and fixed in PBS containing 1% paraformaldehyde. Non-specific fluorescence was assessed by using isotype-matched control. For each sample 10,000 events were acquired. Data were analyzed and processed using CellQuest™ software (Becton Dickinson).
# [8] = system: HIV-1 isolates; test: Inhibition of HIV-1 infection (cMAGI reporter cells, MT2 syncytium formation); format: cell-based; conditions: up to 100 μM
# Procedure: Aliquots of cell-free culture supernatants were used as viral inoculum. […] Cytotoxicity determinations were carried out in MT2 and H9 cells by trypan blue exclusion assay.
# Viral inhibition was determined by incubating cMAGI HIV-1 reporter cells with 0.2–0.5 multiplicity of infection of HIV-1IIIB for 4 days at 37° C. in the presence or absence of various concentration of AACs, prior to counting the number of HIV-1 infected cells (stained blue). The cytopathic effects of the viral infection of MT2 cells were also analyzed by microscopic assessment of syncytium formation. These latter data were obtained by analysis of duplicate samples by two independent observers.
# [9] = system: RRE IIB; test: Fluorescence anisotropy of aminoglycoside binding to RRE IIB, fluorescein-Rev34-50 tracer (literature); parameters: species or system HIV-1
# [10] = molecular target: RRE IIB; conditions: fluorescein-Rev34-50 as fluorescent tracer; read-out: KD of aminoglycoside binding to RRE IIB; cited from earlier work
# [11] = system: lymphocytes, PBMC and neurons; conditions: cited from earlier work
# [12] = molecular target: T2, CCR5 (Homo sapiens, UniProt P51681); conditions: PHA stimulated peripheral blood lymphocytes; cited from earlier work
# T2 construct: in PHA stimulated peripheral blood lymphocytes (PBL); host or cells: PHA stimulated peripheral blood lymphocytes (PBL)
# [13] = molecular target: T3, CD4 (Homo sapiens, UniProt P01730); conditions: PHA stimulated peripheral blood lymphocytes; cited from earlier work
# T3 construct: in PHA stimulated peripheral blood lymphocytes (PBL); host or cells: PHA stimulated peripheral blood lymphocytes (PBL)
# [14] = system: HIV-1IIIB wild type; test: Inhibition of HIV-1IIIB wild type in MT2 or cMAGI cells; format: cell-based; conditions: HIV-1IIIB wt; mean and standard deviation of three separate experiments; read-out: EC50, Wild-type
# Text: The cMAGI assay is based on the ability of HIV-1 TAT to transactivate the expression of an integrated β-galactosidase reporter gene driven by the HIV-LTR [Chackerian, B. et al., 1997. J Virol. 71: 3932–3939; Collins, K. B. et al., 2000. Nat. Med. 6: 475–479]. The β-galactosidase reporter has been modified to remain localized in the nucleus where it can be detected with the X-gal substrate as an intense nuclear stain within a few days of infection. The X-gal substrate used was 5-bromo-4-chloro-3-indoyl-beta-D-galactopyranoside. HIV1IIIB was propagated by subculture in MT2 as described previously [Litovchick (2001) Supra]. Aliquots of cell-free culture supernatants were used as viral inoculum. […] The cytopathic effects of the viral infection of MT2 cells were analyzed by microscopic assessment of syncytium formation. These latter data were obtained by analysis of duplicate samples by two independent observers. HIV-1 infection of cMAGI cells was determined by counting the number of HIV-1 infected cells (stained blue).
# T1 sequence (P61073 whole entry): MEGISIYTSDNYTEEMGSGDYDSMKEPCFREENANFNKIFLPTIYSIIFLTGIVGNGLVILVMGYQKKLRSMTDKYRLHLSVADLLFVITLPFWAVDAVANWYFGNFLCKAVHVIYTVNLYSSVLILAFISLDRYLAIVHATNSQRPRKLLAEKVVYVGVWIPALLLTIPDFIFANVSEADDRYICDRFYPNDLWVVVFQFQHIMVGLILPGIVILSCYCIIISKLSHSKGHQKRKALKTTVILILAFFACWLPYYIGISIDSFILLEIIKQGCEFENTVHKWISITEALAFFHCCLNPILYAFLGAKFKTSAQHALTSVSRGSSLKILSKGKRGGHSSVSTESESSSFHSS
# T2 sequence (P51681 whole entry): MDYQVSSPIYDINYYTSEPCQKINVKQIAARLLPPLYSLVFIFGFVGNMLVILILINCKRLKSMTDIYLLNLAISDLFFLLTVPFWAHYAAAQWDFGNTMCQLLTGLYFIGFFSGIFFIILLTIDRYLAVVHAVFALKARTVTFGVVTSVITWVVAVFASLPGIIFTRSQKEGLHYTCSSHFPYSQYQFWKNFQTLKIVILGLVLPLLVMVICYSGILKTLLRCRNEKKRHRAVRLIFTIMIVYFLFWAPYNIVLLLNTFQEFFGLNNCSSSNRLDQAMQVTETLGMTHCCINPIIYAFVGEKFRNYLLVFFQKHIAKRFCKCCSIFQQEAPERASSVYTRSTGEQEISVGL
Compound,Kd [1],IC50 [1] [nM],Kd [6],IC50 [6] [nM],reduction of 12G5 mAb binding to the cells [7] [%],"inhibition of mAb 12G5 or SDF-1α binding to CXCR4, % of the NeoR6 activity [7] [%]",antiviral activity (in words) [8],further results
"CC(=O)O.N=C(N)NCCCC(N)C(=O)NCC1OC(OC2C(CO)OC(OC3C(O)C(NC(=O)C(N)CCCNC(=N)N)CC(NC(=O)C(N)CCCNC(=N)N)C3OC3OC(CO)C(O)C(O)C3NC(=O)C(N)CCCNC(=N)N)C2O)C(NC(=O)C(N)CCCNC(=N)N)C(O)C1O (centres unmarked) [ParomR5, pentaargininamido-paromomycin conjugate]",96 nM and 95.9 nM,149 ± 12.3,15 nM and 15.1 nM,34.3 ± 5.7,81,90,–,"times weaker than NeoR6, RRE IIB binding ([1]; ratio of KD to that of NeoR6): about 4; inhibition of NeoR6-FITC uptake, less efficient than NeoR6 ([2]; 40 fold excess of non-labeled AAC): about 50%; inhibition of NeoR6-FITC uptake, less affinity than NeoR6 [2]: about 50%; cellular uptake of FITC-labeled AAC by PM1 cells [3]: uptaken by PM1 cells; MFI of FITC-AAC uptake ([4]; 62.5 nM SDF-1α): 83; inhibition of cell uptake by SDF-1α ([4]; 125 nM SDF-1α): about 50%; MFI of FITC-AAC uptake ([4]; 125 nM SDF-1α): 59; MFI of FITC-AAC uptake ([4]; 250 nM SDF-1α): 53; MFI of FITC-AAC uptake ([4]; without SDF-1α): 104; effect of RANTES on uptake of FITC derivative [5]: did not affect uptake; competition with RhdRev for TAR RNA binding (in words) [6]: efficiently competed"
"CC(=O)O.N=C(N)NCCCC(N)C(=O)NCC1OC(OC2C(CO)OC(OC3C(O)C(N)CC(N)C3OC3OC(CO)C(O)C(O)C3N)C2O)C(N)C(O)C1O (centres unmarked) [ParomR1, argininamido-paramomycin conjugate]",254 ± 7.8 nM,407 ± 41,> 500 nM,> 500,16,–,–,competition with NeoR6-FITC uptake (in words) [2]: did not compete
"NC[C@@H]1O[C@H](O[C@H]2[C@@H](O)[C@H](O[C@@H]3[C@@H](O)[C@H](N)C[C@H](N)[C@H]3O[C@H]3O[C@H](CO)[C@@H](O)[C@H](O)[C@H]3N)O[C@@H]2CO)[C@H](N)[C@@H](O)[C@@H]1O [paromomycin, reference compound]",–,–,–,–,–,–,did not reveal antiviral activity,inhibition of 12G5 mAb binding to CXCR4 (in words) [7]: did not inhibit
gentamicin,–,–,–,–,–,–,did not reveal antiviral activity,–
"NC[C@H]1O[C@H](O[C@H]2[C@H](O)[C@@H](O)[C@H](N)C[C@@H]2N)[C@H](N)[C@@H](O)[C@@H]1O [neamine, reference compound]",–,–,–,–,–,–,did not reveal antiviral activity,inhibition of 12G5 mAb binding to CXCR4 (in words) [7]: did not inhibit
"NC[C@@H]1O[C@H](O[C@H]2[C@@H](O)[C@H](O[C@@H]3[C@@H](O)[C@H](N)C[C@H](N)[C@H]3O[C@H]3O[C@H](CN)[C@@H](O)[C@H](O)[C@H]3N)O[C@@H]2CO)[C@H](N)[C@@H](O)[C@@H]1O [neomycin, neomycin B]",–,–,–,–,–,–,did not reveal antiviral activity,times weaker than NeoR1 binding to RRE IIB ([9]; comparator NeoR1): 6; times weaker than NeoR2 binding to RRE IIB ([9]; comparator NeoR2): 7; times weaker than NeoR6 binding to RRE IIB ([9]; comparator NeoR6): ~550; Kd [10]: 1180 nM; inhibition of 12G5 mAb binding to CXCR4 (in words) [7]: did not inhibit
NC(N)=NCCC[C@H](N)C(=O)NC[C@H]1O[C@H](O[C@H]2C(O)[C@@H](O[C@H]3O[C@H](CO)[C@@H](O)[C@H](NC(=O)[C@@H](N)CCCN=C(N)N)[C@H]3O)[C@H](NC(=O)[C@@H](N)CCCN=C(N)N)C[C@@H]2NC(=O)[C@@H](N)CCCN=C(N)N)[C@H](O)[C@@H](O)[C@@H]1O (some centres unmarked) [R4K],–,–,–,–,–,–,–,"accumulation in cells [11]: accumulate in different cell types; inhibition of binding of 2D7, a mAb directed to CCR5 [12]: neither R3G nor R4K or NeoR6 inhibit the binding; inhibition of binding of anti CD4 antibody (Leu 3a) [13]: neither R3G nor R4K or NeoR6 inhibit the binding"
argininamido-neomycin B conjugate [NeoR1],200 ± 5.9 nM,353 ± 31.9,> 500 nM,> 500,50,55,–,competition with NeoR6-FITC uptake (in words) [2]: did not compete
"CC(=O)O.N=C(N)NCCCC(N)C(=O)NCC1OC(OC2C(N)CC(N)C(O)C2O)C(N)C(O)C1O (centres unmarked) [NeamR1, argininamido-neamine conjugate]",233 ± 4.5 nM,342 ± 29.5,> 500 nM,> 500,5,–,–,competition with NeoR6-FITC uptake (in words) [2]: did not compete
"CC(=O)O.N=C(N)NCCCC(N)C(=O)NCC1OC(OC2C(CO)OC(OC3C(O)C(N)CC(N)C3OC3OC(CNC(=O)C(N)CCCNC(=N)N)C(O)C(O)C3N)C2O)C(N)C(O)C1O (centres unmarked) [NeoR2, diargininamido-neomycin B conjugate]",112 ± 3.7 nM,208 ± 21.1,> 500 nM,> 500,48,55,–,"inhibition of NeoR6-FITC uptake, less affinity than NeoR6 [2]: about 50%"
"Nc1ccn([C@H]2CC[C@@H](CO)O2)c(=O)n1 [ddC, Dideoxycytosine, reference compound]",–,–,–,–,–,–,–,EC50 [14]: 300 ± 100 nM
"CC(=O)O.N=C(N)NCCCC(N)C(=O)NCC1OC(OC2C(NC(=O)C(N)CCCNC(=N)N)CC(NC(=O)C(N)CCCNC(=N)N)C(O)C2O)C(NC(=O)C(N)CCCNC(=N)N)C(O)C1O (centres unmarked) [NeamR4, Neamine tetra-arginine conjugate]",55 nM and 54.7 nM,119 ± 13.5,30 nM and 30.1 nM,82.8 ± 7.7,60,70,–,"inhibition of NeoR6-FITC uptake, less affinity than NeoR6 [2]: about 50%; cellular uptake of FITC-labeled AAC by PM1 cells [3]: uptaken by PM1 cells; MFI of FITC-AAC uptake ([4]; 62.5 nM SDF-1α): 56; inhibition of cell uptake by SDF-1α ([4]; 125 nM SDF-1α): about 50%; MFI of FITC-AAC uptake ([4]; 125 nM SDF-1α): 52; MFI of FITC-AAC uptake ([4]; 250 nM SDF-1α): 50; MFI of FITC-AAC uptake ([4]; without SDF-1α): 96; effect of RANTES on uptake of FITC derivative [5]: did not affect uptake; folds less active / times weaker than NeoR6, TAR binding ([6]; ratio of KD to that of NeoR6): 6; competition with RhdRev for TAR RNA binding (in words) [6]: efficiently competed"
